In patent publication US20230059136A1, “THE COMPOUNDS AND COMPOSITIONS FOR TREATING CONDITIONS ASSOCIATED WITH NLRP ACTIVITY” (Novartis AG, priority 2018, published 2023) one finds IC50 data, which are given here for 10 compounds.

Experiment [1] relates to IL-1β production in PMA-differentiated THP-1 cells. Put plainly: IL-1β production in PMA-differentiated THP-1 cells stimulated with gramicidin (hTHP-1 assay containing 2% fetal bovine serum). Type of experiment: cell-based, human. As to conditions: hTHP-1 assay containing 2% fetal bovine serum. Summed up: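 IL-1β release was read by HTRF on supernatants of 50,000 PMA-primed (20 ng/ml, 16-18 h) THP-1 cells/well in 2% FBS medium. Cells saw compound for 1 h (11-point titration from 100 μM, 0.37% DMSO) before a 2 h gramicidin (5 μM) challenge.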

Experiment [2] has the same test system. Put plainly: hTHP-1 assay containing 10% fetal bovine serum (IL-1β production, gramicidin-stimulated THP-1 cells). Type of experiment: cell-based, human. As to the method:
Activity key: <0.008 μM=“++++++”; ≥0.008 and <0.04 μM=“+++++”; ≥0.04 and <0.2 μM=“++++”; ≥0.2 and <1 μM=“+++”; ≥1 and <5 μM=“++”; ≥5 and <30 μM=“+”. ND=not determined.

The mark [3] stands for this setting: read-out: hTHP-1 IC50 in 2% FBS, average IC50.
Where [4] appears, read: read-out: hTHP-1 IC50 in 10% FBS, average IC50.
The mark [5] stands for this setting: Homo sapiens, THP-1, read-out: hTHP-1 IC50 in 2% FBS, average IC50.
[6] abbreviates: Homo sapiens, THP-1, read-out: hTHP-1 IC50 in 10% FBS, average IC50.

pIC50: −log10 of the molar value.

Turning to `CC(C)c1cc2c(c(C(C)C)c1CC(=O)N=S(N)(=O)c1nn(CCO)cc1F)OC(F)(F)O2` (racemic) [Example 405, (R) and (S)—N-(amino(4-fluoro-1-(2-hydroxyethyl)-1H-pyrazol-3-yl)(oxo)-λ^6-sulfaneylidene)-2-(2,2-difluoro-4,6-diisopropylbenzo[d][1,3]dioxol-5-yl)acetamide], the pIC50 (as a rule, the negative decadic logarithm of the IC50, by convention in mol/L) was 6.00 to 6.70 in experiment [1] (setting [3]) and 6.70 to 7.40 in experiment [2] (setting [4]).

As to `CC(C)c1cc2c(c(C(C)C)c1CC(=O)N=S(N)(=O)c1nn(CCO)cc1F)OC(F)(F)O2` (racemic) [Example 406, (R) and (S)—N-(amino(4-fluoro-1-(2-hydroxyethyl)-1H-pyrazol-3-yl)(oxo)-λ^6-sulfaneylidene)-2-(2,2-difluoro-4,6-diisopropylbenzo[d][1,3]dioxol-5-yl)acetamide], the figures for the pIC50 in experiment [1] (setting [3]) and in experiment [2] (setting [4]) were 4.52 to 5.30 and 5.30 to 6.00, respectively.

In the case of `CC(C)c1c(CC(=O)N=S(N)(=O)c2sc(C(C)(C)O)cc2F)c2c(c3c1OC(F)(F)O3)CCC2` (racemic) [Example 407, (R) and (S)—N-(amino(3-fluoro-5-(2-hydroxypropan-2-yl)thiophen-2-yl)(oxo)-λ^6-sulfaneylidene)-2-(2,2-difluoro-4-isopropyl-7,8-dihydro-6H-indeno[4,5-d][1,3]dioxol-5-yl)acetamide], the pIC50 in experiment [1] (setting [3]) and in experiment [2] (setting [4]) was 4.52 to 5.30 each time.

As for `CC(C)c1c(CC(=O)N=S(N)(=O)c2sc(C(C)(C)O)cc2F)c2c(c3c1OC(F)(F)O3)CCC2` (racemic) [Example 408, (R) and (S)—N-(amino(3-fluoro-5-(2-hydroxypropan-2-yl)thiophen-2-yl)(oxo)-λ^6-sulfaneylidene)-2-(2,2-difluoro-4-isopropyl-7,8-dihydro-6H-indeno[4,5-d][1,3]dioxol-5-yl)acetamide], the pIC50 in experiment [1] (setting [3]) and in experiment [2] (setting [4]) was 6.00 to 6.70 each time.

Consider `CC(C)c1c2c(c3c(c1CC(=O)N=S(N)(=O)c1sc(C(C)(C)O)cc1F)CCC3)COC2` (single isomer, unassigned) [Example 411, (R) or (S)-N-(amino(3-fluoro-5-(2-hydroxypropan-2-yl)thiophen-2-yl)(oxo)-λ^6-sulfaneylidene)-2-(4-isopropyl-3,6,7,8-tetrahydro-1H-indeno[4,5-c]furan-5-yl)acetamide], for which the pIC50 in experiment [1] (setting [5]) and in experiment [2] (setting [6]) was 6.00 to 6.70 throughout.

As to `CC(C)c1c2c(c3c(c1CC(=O)N=S(N)(=O)c1sc(C(C)(C)O)cc1F)CCC3)COC2` (single isomer, unassigned) [Example 412, (S) or (R)-N-(amino(3-fluoro-5-(2-hydroxypropan-2-yl)thiophen-2-yl)(oxo)-λ^6-sulfaneylidene)-2-(4-isopropyl-3,6,7,8-tetrahydro-1H-indeno[4,5-c]furan-5-yl)acetamide], the pIC50 is < 4.52 in experiment [1] (Homo sapiens, THP-1, read-out: hTHP-1 IC50 in 2% FBS, average IC50, given as numeric bound) and < 4.52 in experiment [2] (Homo sapiens, THP-1, read-out: hTHP-1 IC50 in 10% FBS, average IC50, given as numeric bound).

For `CNCc1ccc(S(N)(=O)=NC(=O)Cc2c(-c3ccccc3)cc(F)cc2C(C)C)cc1` (single isomer, unassigned) [Example 414, (R) or (S)-N-(amino(4-((methylamino)methyl)phenyl) (oxo)-λ^6-sulfaneylidene)-2-(5-fluoro-3-isopropyl-[1,1′-biphenyl]-2-yl)acetamide], the pIC50 in experiment [2] (setting [4]) was 6.00 to 6.70.

`CC(C)c1cc2c(c(C(C)C)c1CC(=O)N=S(N)(=O)c1nn(C[C@@H](C)O)cc1F)OC(F)(F)O2` (single isomer, unassigned) [Example 415, (R) or (S)-N-(amino(4-fluoro-1-((R)-2-hydroxypropyl)-1H-pyrazol-3-yl)(oxo)-λ^6-sulfaneylidene)-2-(2,2-difluoro-4,6-diisopropylbenzo[d][1,3]dioxol-5-yl)acetamide]: in experiment [2] (setting [4]), the pIC50 is 6.70 to 7.40.

As to `CC(C)c1cc2c(c(C(C)C)c1CC(=O)N=S(N)(=O)c1nn(C[C@@H](C)O)cc1F)OC(F)(F)O2` (single isomer, unassigned) [Example 416, (S) or (R)-N-(amino(4-fluoro-1-((R)-2-hydroxypropyl)-1H-pyrazol-3-yl)(oxo)-λ^6-sulfaneylidene)-2-(2,2-difluoro-4,6-diisopropylbenzo[d][1,3]dioxol-5-yl)acetamide], the pIC50 in experiment [2] (setting [4]) is 4.52 to 5.30.

As to `CC(C)c1cccc(C(C)C)c1CC(=O)N=S(N)(=O)c1ccc(CCNC(=O)CCCc2ccccc2)cc1` (centres unmarked) [Compound 409], the pIC50 was 5.30 to 6.00 in experiment [1] (setting [5]) and 6.00 to 6.70 in experiment [2] (setting [6]).
